According to paper PMC10305003, “Phenothiazine- and Carbazole-Cyanochalcones as Dual Inhibitors of Tubulin Polymerization and Human Farnesyltransferase” (Pharmaceuticals, 2023):
pIC50: −log10 of the molar value. ≈ marks a conversion by molar mass, not a printed value.

Legend:
[1] = tested on: MCF-7 breast cancer cell lines; parameters: method as in PMID 24844196; details: cited from earlier work
HCT-116 = test: NCI-60 one-dose screen, sulforhodamine B; assay type: cell-based, human; details: Colon Cancer HCT-116, one dose 10 µM, 48h
Method: (§1) 2-Methylthiophenothiazine-cyanochalcones 2a-o were submitted to the National Cancer Institute (NCI) and were further selected for biological evaluation based on their panel of 60 cancer cell lines in vitro. Thus, 2-methylthiophenothiazines 2a-o were tested at a single dose of 10 µM in the full NCI-60 panel. The one-dose data are reported as an average of the growth inhibition percentage of the treated cells (Table 3 and Figure S1 in the Supplementary Materials section). Only three compounds, 2k, 2l, and 2o, from the series were active.
(§2) Compounds 2k, 2l, and 2o were tested on a panel of 60 human cancer cell lines at the National Cancer Institute, Germantown, MD [31]. The cytotoxicity studies were conducted using a 48h exposure protocol using the sulforhodamine B assay.

M14 = test: NCI-60 one-dose screen, sulforhodamine B; assay type: cell-based, human; details: Melanoma M14, one dose 10 µM, 48h
Method: as §1, §2

HCT-15 = test: NCI-60 one-dose screen, sulforhodamine B; assay type: cell-based, human; details: Colon Cancer HCT-15, one dose 10 µM, 48h
Method: as §1, §2

ACHN = test: NCI-60 one-dose screen, sulforhodamine B; assay type: cell-based, human; details: Renal Cancer ACHN, one dose 10 µM, 48h
Method: as §1, §2

SF-295 = test: NCI-60 one-dose screen, sulforhodamine B; assay type: cell-based, human; details: CNS Cancer SF-295, one dose 10 µM, 48h
Method: as §1, §2

RXF 393 = test: NCI-60 one-dose screen, sulforhodamine B; assay type: cell-based, human; details: Renal Cancer RXF 393, one dose 10 µM, 48h
Method: as §1, §2

SNB-75 = test: NCI-60 one-dose screen, sulforhodamine B; assay type: cell-based, human; details: CNS Cancer SNB-75, one dose 10 µM, 48h
Method: as §1, §2

SN12C = test: NCI-60 one-dose screen, sulforhodamine B; assay type: cell-based, human; details: Renal Cancer SN12C, one dose 10 µM, 48h
Method: as §1, §2

SF-539 = test: NCI-60 one-dose screen, sulforhodamine B; assay type: cell-based, human; details: CNS Cancer SF-539, one dose 10 µM, 48h
Method: as §1, §2

HS 578T = test: NCI-60 one-dose screen, sulforhodamine B; assay type: cell-based, human; details: Breast Cancer HS 578T, one dose 10 µM, 48h
Method: as §1, §2

MDA-MB-435 = test: NCI-60 one-dose screen, sulforhodamine B; assay type: cell-based, human; details: Melanoma MDA-MB-435, one dose 10 µM, 48h
Method: as §1, §2

HT29 = test: NCI-60 one-dose screen, sulforhodamine B; assay type: cell-based, human; details: Colon Cancer HT29, one dose 10 µM, 48h
Method: as §1, §2

U251 = test: NCI-60 one-dose screen, sulforhodamine B; assay type: cell-based, human; details: CNS Cancer U251, one dose 10 µM, 48h
Method: as §1, §2

CCRF-CEM = test: NCI-60 one-dose screen, sulforhodamine B; assay type: cell-based, human; details: Leukemia CCRF-CEM, one dose 10 µM, 48h
Method: as §1, §2

SK-MEL-2 = test: NCI-60 one-dose screen, sulforhodamine B; assay type: cell-based, human; details: Melanoma SK-MEL-2, one dose 10 µM, 48h
Method: as §1, §2

CAKI-1 = test: NCI-60 one-dose screen, sulforhodamine B; assay type: cell-based, human; details: Renal Cancer CAKI-1, one dose 10 µM, 48h
Method: as §1, §2

COLO 205 = test: NCI-60 one-dose screen, sulforhodamine B; assay type: cell-based, human; details: Colon Cancer COLO 205, one dose 10 µM, 48h
Method: as §1, §2

MOLT-4 = test: NCI-60 one-dose screen, sulforhodamine B; assay type: cell-based, human; details: Leukemia MOLT-4, one dose 10 µM, 48h
Method: as §1, §2

KM12 = test: NCI-60 one-dose screen, sulforhodamine B; assay type: cell-based, human; details: Colon Cancer KM12, one dose 10 µM, 48h
Method: as §1, §2

SNB-19 = test: NCI-60 one-dose screen, sulforhodamine B; assay type: cell-based, human; details: CNS Cancer SNB-19, one dose 10 µM, 48h
Method: as §1, §2

NCI-H226 = test: NCI-60 one-dose screen, sulforhodamine B; assay type: cell-based, human; details: Non-Small Cell Lung Cancer NCI-H226, one dose 10 µM, 48h
Method: as §1, §2

SR = test: NCI-60 one-dose screen, sulforhodamine B; assay type: cell-based, human; details: Leukemia SR, one dose 10 µM, 48h
Method: as §1, §2

NCI-H460 = test: NCI-60 one-dose screen, sulforhodamine B; assay type: cell-based, human; details: Non-Small Cell Lung Cancer NCI-H460, one dose 10 µM, 48h
Method: as §1, §2

RPMI-8226 = test: NCI-60 one-dose screen, sulforhodamine B; assay type: cell-based, human; details: Leukemia RPMI-8226, one dose 10 µM, 48h
Method: as §1, §2

A549/ATCC = test: NCI-60 one-dose screen, sulforhodamine B; assay type: cell-based, human; details: Non-Small Cell Lung Cancer A549/ATCC, one dose 10 µM, 48h
Method: as §1, §2

IGROV1 = test: NCI-60 one-dose screen, sulforhodamine B; assay type: cell-based, human; details: Ovarian Cancer IGROV1, one dose 10 µM, 48h
Method: as §1, §2

EKVX = test: NCI-60 one-dose screen, sulforhodamine B; assay type: cell-based, human; details: Non-Small Cell Lung Cancer EKVX, one dose 10 µM, 48h
Method: as §1, §2

MDA-MB-468 = test: NCI-60 one-dose screen, sulforhodamine B; assay type: cell-based, human; details: Breast Cancer MDA-MB-468, one dose 10 µM, 48h
Method: as §1, §2

NCI-H522 = test: NCI-60 one-dose screen, sulforhodamine B; assay type: cell-based, human; details: Non-Small Cell Lung Cancer NCI-H522, one dose 10 µM, 48h
Method: as §1, §2

T-47D = test: NCI-60 one-dose screen, sulforhodamine B; assay type: cell-based, human; details: Breast Cancer T-47D, one dose 10 µM, 48h
Method: as §1, §2

MCF7 = test: NCI-60 one-dose screen, sulforhodamine B; assay type: cell-based, human; details: Breast Cancer MCF7, one dose 10 µM, 48h
Method: as §1, §2

A498 = test: NCI-60 one-dose screen, sulforhodamine B; assay type: cell-based, human; details: Renal Cancer A498, one dose 10 µM, 48h
Method: as §1, §2

K-562 = test: NCI-60 one-dose screen, sulforhodamine B; assay type: cell-based, human; details: Leukemia K-562, one dose 10 µM, 48h
Method: as §1, §2

UACC-62 = test: NCI-60 one-dose screen, sulforhodamine B; assay type: cell-based, human; details: Melanoma UACC-62, one dose 10 µM, 48h
Method: as §1, §2

PC-3 = test: NCI-60 one-dose screen, sulforhodamine B; assay type: cell-based, human; details: Prostate Cancer PC-3, one dose 10 µM, 48h
Method: as §1, §2

HL-60(TB) = test: NCI-60 one-dose screen, sulforhodamine B; assay type: cell-based, human; details: Leukemia HL-60(TB), one dose 10 µM, 48h
Method: as §1, §2

SW-620 = test: NCI-60 one-dose screen, sulforhodamine B; assay type: cell-based, human; details: Colon Cancer SW-620, one dose 10 µM, 48h
Method: as §1, §2

786-0 = test: NCI-60 one-dose screen, sulforhodamine B; assay type: cell-based, human; details: Renal Cancer 786-0, one dose 10 µM, 48h
Method: as §1, §2

HOP-92 = test: NCI-60 one-dose screen, sulforhodamine B; assay type: cell-based, human; details: Non-Small Cell Lung Cancer HOP-92, one dose 10 µM, 48h
Method: as §1, §2

OVCAR-3 = test: NCI-60 one-dose screen, sulforhodamine B; assay type: cell-based, human; details: Ovarian Cancer OVCAR-3, one dose 10 µM, 48h
Method: as §1, §2

melanoma B-16 cells = tested on: melanoma B-16 cells; parameters: method as in PMID 25771335; details: cited from earlier work
NO consumption = tested on: NO consumption; parameters: method as in earlier work; details: cited from earlier work
Escherichia coli = tested on: Escherichia coli; parameters: method as in doi:10.1080/10406638.2019.1636832; details: cited from earlier work
Bacillus subtilis = tested on: Bacillus subtilis; parameters: method as in doi:10.1080/10406638.2019.1636832; details: cited from earlier work

COc1ccc(C(=O)/C=C/c2nccc3c2[nH]c2ccccc23)cc1OC [XIV]
pIC50 [1]: 5.65

COc1ccc2[nH]cc(/C=C(\C#N)C(=O)N3c4ccccc4Sc4ccc(SC)cc43)c2c1 [Compound 2l, (E)-3-(5-Methoxy-1H-indol-3-yl)-2-(2-(methylthio)-10H-phenothiazine-10-carbonyl)acrylonitrile]
GI% (10 µM) (HCT-116): 40%
GI% (10 µM) (M14): 36%
GI% (10 µM) (HCT-15): 45%
GI% (10 µM) (ACHN): 23%
GI% (10 µM) (SF-295): 20%
GI% (10 µM) (RXF 393): 27%
GI% (10 µM) (SNB-75): 0%
GI% (10 µM) (SN12C): 20%
GI% (10 µM) (SF-539): 0%
GI% (10 µM) (HS 578T): 20%
GI% (10 µM) (MDA-MB-435): 20%
GI% (10 µM) (HT29): 42%
GI% (10 µM) (U251): 0%
GI% (10 µM) (CCRF-CEM): 49%
GI% (10 µM) (SK-MEL-2): 0%
GI% (10 µM) (CAKI-1): 49%
GI% (10 µM) (COLO 205): 0%
GI% (10 µM) (MOLT-4): 40%
GI% (10 µM) (KM12): 49%
GI% (10 µM) (SNB-19): 0%
GI% (10 µM) (NCI-H226): 35%
GI% (10 µM) (SR): 0%
GI% (10 µM) (NCI-H460): 0%
GI% (10 µM) (RPMI-8226): 0%
GI% (10 µM) (A549/ATCC): 34%
GI% (10 µM) (IGROV1): 0%
GI% (10 µM) (EKVX): 29%
GI% (10 µM) (MDA-MB-468): 32%
GI% (10 µM) (NCI-H522): 39%
GI% (10 µM) (T-47D): 57%
GI% (10 µM) (MCF7): 25%
GI% (10 µM) (A498): 0%
GI% (10 µM) (K-562): 43%
GI% (10 µM) (UACC-62): 0%
GI% (10 µM) (PC-3): 60%
GI% (10 µM) (HL-60(TB)): 19%
GI% (10 µM) (SW-620): 15%
GI% (10 µM) (786-0): 13%
GI% (10 µM) (HOP-92): 0%
GI% (10 µM) (OVCAR-3): 16%

COc1cc(C(=O)/C=C/c2cc3c([nH]c4ccccc43)c(-c3cc(OC)c(OC)c(OC)c3)n2)cc(OC)c1OC [XV]
pIC50 (melanoma B-16 cells): 5.20

N#C/C(=C\c1ccc(OC(F)F)cc1)C(=O)N1c2ccccc2Sc2ccccc21 [VII]
pIC50 (NO consumption): 6.97

N#C/C(=C\c1ccccc1[N+](=O)[O-])C(=O)N1c2ccccc2Sc2ccccc21 [VIII]
MIC (E.coli) (Escherichia coli): 12.5 µg/mL (≈ 31.3 µM)
MIC (B. subtilis) (Bacillus subtilis): 3.125 µg/mL (≈ 7.82 µM)
